Consider 5 compounds from patent US20100190794A1, “Herbicidally Active Composition” (BASF SE, priority 2007, published 2010).

What all share (test): greenhouse test, pre-emergence treatment
The test system of assay [1] is APESV. In kind it is in vivo, Apera spica-venti. An excerpt: (§1) The culture containers used were plastic pots containing loamy sand with approximately 3.0% of humus as substrate. The seeds of the test plants were sown separately for each species.
(§2) For the pre-emergence treatment, the active compounds, suspended or emulsified in water, were applied directly after sowing by means of finely distributing nozzles. The containers were irrigated gently to promote germination and growth and subsequently covered with transparent plastic hoods until the plants had rooted. This cover caused uniform germination of the test plants unless this was adversely affected by the active compounds.
(§3) Depending on the species, the plants were kept at 10-25° C. and 20-35° C., respectively. The test period extended over 2 to 4 weeks. During this time, the plants were tended and their response to the individual treatments was evaluated.
(§4) Evaluation was carried out using a scale from 0 to 100. 100 means no emergence of the plants, or complete destruction of at least the above-ground parts, and 0 means no damage or normal course of growth. Good herbicidal activity is given at values of at least 70, and very good herbicidal activity is given at values of at least 85.
(§5) The respective stated components A and B, and if appropriate, C were formulated as a 5% by weight or 10% by weight strength emulsion concentrate or a commercially available formulation of component B was used and, with addition of the amount of solvent system, introduced into the spray liquor used for applying the active compound. In the examples, the solvent used was water.
(§6) The test period extended over 20 or 21 days. During this time, the plants were tended, and their reactions to the treatment with active compound was monitored.
(§7) What was evaluated was the damage by the chemical compositions using a scale of from 0 to 100%, in comparison to the untreated control plants. 0 means no damage, and 100 means complete destruction of the plants.
(§8) In the examples below, using the method of S. R. Colby (1967) “Calculating synergistic and antagonistic responses of herbicide combinations”, Weeds 15, p. 22 ff., the value E, which is expected if the activity of the individual active compounds is only additive, was calculated.
(§9) where X=percent activity using active compound A at an application rate a; Y=percent activity using active compound B at an application rate b; E=expected activity (in %) by A+B at application rates a+b.
(§10) If the value found in experiments is higher than the value E calculated according to Colby, a synergistic effect is present.

Assay [2] has as its system ALOMY. In kind it is in vivo, Alopecurus myosuroides.
Excerpt: as §1, §2, §3, §4, §5, §6, §7, §8, §9, §10

Assay [3] deals with BRAPL. In kind it is in vivo, Brachiaria plantaginea. As to conditions: for Herbicidal action in % after 21 days against BRAPL: Use Example 8.
Excerpt: as §1, §2, §3, §4, §5, §6, §7, §8, §9, §10

Assay [4] concerns LOLMU. In kind it is in vivo, Lolium multiflorum. As to conditions: Use Example 21.
Excerpt: as §1, §2, §3, §4, §5, §6, §7, §8, §9, §10

The test system of assay [5] is PHACA. In kind it is in vivo, Phalaris canariensis.
Excerpt: as §1, §2, §3, §4, §5, §6, §7, §8, §9, §10

The test system of assay [6] is SOLNI. In kind it is in vivo, Solanum nigrum L.
Excerpt: as §1, §2, §3, §4, §5, §6, §7, §8, §9, §10

For assay [7], the system named is SETFA. In kind it is in vivo, Setaria faberi.
Excerpt: as §1, §2, §3, §4, §5, §6, §7, §8, §9, §10

In assay [8] the test system is LAMPU. In kind it is in vivo, Lamium purpureum.
Excerpt: as §1, §2, §3, §4, §5, §6, §7, §8, §9, §10

Assay [9] relates to ECHCG. In kind it is in vivo, Echinochloa crus-galli.
Excerpt: as §1, §2, §3, §4, §5, §6, §7, §8, §9, §10

Assay [10] deals with DIGSA. In kind it is in vivo, Digitaria sanguinalis.
Excerpt: as §1, §2, §3, §4, §5, §6, §7, §8, §9, §10

The test system of assay [11] is SETLU. In kind it is in vivo, Setaria glauca. As to conditions: 31.25 g/ha a.s., Use Example 14.
Excerpt: as §1, §2, §3, §4, §5, §6, §7, §8, §9, §10

For assay [12], the system named is POAAN. In kind it is in vivo, Poa annua. The settings on record: Use Example 15.
Excerpt: as §1, §2, §3, §4, §5, §6, §7, §8, §9, §10

The mark [13] stands for this setting: 31.25 g/ha a.s., Use Example 23.
Setting [14] is: 31.25 g/ha a.s., Use Example 14.

Take `CN1C(=O)C(Cc2ccccc2)N(C)C(=O)C1=Cc1ccccc1C#N` (racemic) [Compound I-1 (Z) (Racemate), 2-[5-benzyl-1,4-dimethyl-3,6-dioxopiperazin-2-ylidenemethyl]benzonitrile]: the “Herbicidal action in % after 20 days against APESV” value in [1] (63 g/ha a.s., Use Example 21) is 80%; in [1] (125 g/ha a.s., Use Example 20) it was 90%; in assay [1] (125 g/ha a.s., Use Example 21), 90%; in assay [1] (250 g/ha a.s., Use Example 20), 95%. Moreover, the “Herbicidal action in % after 20 days against ALOMY” value came out at 30% in assay [2] (63 g/ha a.s., Use Example 21) and 75% in assay [2] (125 g/ha a.s., Use Example 21). In addition, the “Herbicidal action in % after 20 days against BRAPL” value in assay [3] (125 g/ha a.s., Use Example 23) was determined as 40%; in assay [3] (250 g/ha a.s., Use Example 19) it was 75%; in assay [3] (250 g/ha a.s., Use Example 23), 75%. In addition, the “Herbicidal action in % after 20 days against LOLMU” value in [4] (63 g/ha a.s.) is listed as 30%; in assay [4] (125 g/ha a.s.) it was 50%. In addition, the “Herbicidal action in % after 20 days against PHACA” value in assay [5] (125 g/ha a.s., Use Example 20) is reported as 65%; in assay [5] (250 g/ha a.s., Use Example 20) it was 90%. Moreover, the “Herbicidal action in % after 20 days against SOLNI” value in [6] (125 g/ha a.s., Use Example 22) is given as 40%; in assay [6] (125 g/ha a.s., Use Example 23), 40%; in [6] (250 g/ha a.s., Use Example 19), 65%; in assay [6] (250 g/ha a.s., Use Example 22) it was 65%; in [6] (250 g/ha a.s., Use Example 23), 65%. The “Herbicidal action in % after 20 days against SETFA” value is on record as 75% in [7] (125 g/ha a.s., Use Example 22); 85% in assay [7] (250 g/ha a.s., Use Example 19); 85% in assay [7] (250 g/ha a.s., Use Example 22). Also, the “Herbicidal action in % after 20 days against LAMPU” value in assay [8] (63 g/ha a.s., Use Example 21) was determined as 0%; in assay [8] (125 g/ha a.s., Use Example 20) it was 30%; in assay [8] (125 g/ha a.s., Use Example 21), 30%; in assay [8] (250 g/ha a.s., Use Example 20), 80%. Besides, the “Herbicidal action in % after 20 days against ECHCG” value came out at 20% in assay [9] (125 g/ha a.s., Use Example 22); 20% in assay [9] (125 g/ha a.s., Use Example 23); 70% in assay [9] (250 g/ha a.s., Use Example 22); 70% in [9] (250 g/ha a.s., Use Example 23). The “Herbicidal action in % after 20 days against DIGSA” value in assay [10] (125 g/ha a.s., Use Example 22) stood at 40%; in assay [10] (125 g/ha a.s., Use Example 23), 40%; in [10] (250 g/ha a.s., Use Example 19), 65%; in [10] (250 g/ha a.s., Use Example 22) it was 65%; in assay [10] (250 g/ha a.s., Use Example 23), 65%.
On to `CC1(C)CON(Cc2ccccc2Cl)C1=O` [Clomazon, Clomazone], for which the “Herbicidal action in % after 21 days against BRAPL” value is on record as 65% in assay [3] (50 g/ha a.s.) and 85% in [3] (100 g/ha a.s.).
For `COC[C@H](C)N(C(=O)CCl)c1c(C)csc1C` [Dimethenamide-P, reference compound], the “Herbicidal action in % after 20 days against BRAPL” value in [3] (16 g/ha a.s., Use Example 23) is 40%; in assay [3] (setting [13]), 50%. Further, the “Herbicidal action in % after 20 days against SETLU” value in assay [11] is 65%. The “Herbicidal action in % after 20 days against SOLNI” value in [6] (16 g/ha a.s., Use Example 23) worked out at 60%; in assay [6] (setting [13]), 80%. Moreover, the “Herbicidal action in % after 20 days against SETFA” value in assay [7] (setting [14]) stood at 95%. Also, the “Herbicidal action in % after 20 days against ECHCG” value in assay [9] (16 g/ha a.s., Use Example 23) worked out at 50%; in [9] (setting [13]) it was 85%. The “Herbicidal action in % after 20 days against DIGSA” value in assay [10] (16 g/ha a.s., Use Example 23) is 70%; in assay [10] (setting [14]), 90%; in assay [10] (setting [13]), 85%.
Take `CC(C)c1ccc(NC(=O)N(C)C)cc1` [Isoproturon, reference compound]: the “Herbicidal action in % after 20 days against ALOMY” value in [2] (375 g/ha a.s., Use Example 4) is given as 90%; in assay [2] (750 g/ha a.s., Use Example 4), 98%. Further, the “Herbicidal action in % after 20 days against PHACA” value in assay [5] (375 g/ha a.s., Use Example 4) is 55%; in [5] (750 g/ha a.s., Use Example 4), 75%.
`CCC(C)(CC)c1cc(NC(=O)c2c(OC)cccc2OC)on1` [Isoxaben, reference compound]: the “Herbicidal action in % after 20 days against POAAN” value in [12] (25 g/ha a.s.) and in assay [12] (50 g/ha a.s.) was 0% each time. For the same compound, the “Herbicidal action in % after 20 days against ALOMY” value in [2] (25 g/ha a.s., Use Example 15) is on record as 0%; in assay [2] (50 g/ha a.s., Use Example 15) it was 0%.
